Laboratory results: ChEMBL document CHEMBL1131055, “Discovery of type II (covalent) inactivation of S-adenosyl-L-homocysteine hydrolase involving its "hydrolytic activity": synthesis and evaluation of dihalohomovinyl nucleoside analogues derived from adenosine” (J Med Chem, 1998)

Legend:
[1] = target: T1, Adenosylhomocysteinase (Homo sapiens, UniProt P23526); assay: The kinetic constant for inhibition of S-adenosyl-homocysteine hydrolase obtained from human placenta by the compound
Target sequence in this assay (P23526 2-432 limits assumed): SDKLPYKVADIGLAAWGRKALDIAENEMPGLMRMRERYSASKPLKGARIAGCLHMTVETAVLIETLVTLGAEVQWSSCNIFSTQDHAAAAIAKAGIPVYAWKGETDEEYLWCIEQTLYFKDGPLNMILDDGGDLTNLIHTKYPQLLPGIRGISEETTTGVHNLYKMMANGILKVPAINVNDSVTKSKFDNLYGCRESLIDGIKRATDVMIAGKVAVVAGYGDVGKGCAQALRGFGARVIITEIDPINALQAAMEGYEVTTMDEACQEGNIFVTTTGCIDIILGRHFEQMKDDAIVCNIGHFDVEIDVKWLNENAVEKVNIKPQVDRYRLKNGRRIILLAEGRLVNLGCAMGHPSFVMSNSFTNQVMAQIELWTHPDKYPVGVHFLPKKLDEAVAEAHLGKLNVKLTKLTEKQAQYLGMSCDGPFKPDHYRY

[2] = Ratio of Kinact value to that of Ki value
[3] = target: T1, Adenosylhomocysteinase; assay: The kinetic constant for inhibition of S-adenosyl-homocysteine hydrolase by the compound
Target sequence in this assay (P23526 whole entry): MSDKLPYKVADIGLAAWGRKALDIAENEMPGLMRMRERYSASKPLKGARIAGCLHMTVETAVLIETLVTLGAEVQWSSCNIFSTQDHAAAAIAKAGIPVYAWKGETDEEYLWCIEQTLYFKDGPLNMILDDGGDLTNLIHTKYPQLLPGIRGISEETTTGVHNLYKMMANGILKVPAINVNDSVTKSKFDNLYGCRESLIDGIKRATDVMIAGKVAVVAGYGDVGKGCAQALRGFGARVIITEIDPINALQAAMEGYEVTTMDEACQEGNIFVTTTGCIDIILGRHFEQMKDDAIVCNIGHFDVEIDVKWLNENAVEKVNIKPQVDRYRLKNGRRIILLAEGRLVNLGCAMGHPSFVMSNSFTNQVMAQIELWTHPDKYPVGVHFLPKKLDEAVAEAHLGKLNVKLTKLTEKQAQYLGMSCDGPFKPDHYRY

Row | SMILES | K inact [1] [min⁻¹] | K inact/Ki [2] [M⁻¹ s⁻¹] | Ki [3] [µM]
1 | Nc1ncnc2c1ncn2C1O[C@H](C=C(Br)Br)[C@@H](O)[C@H]1O (some centres undefined) | 0.036 | 193 | 3.1
2 | Nc1ncnc2c1ncn2C1O[C@H](/C(Br)=C\Br)[C@@H](O)[C@H]1O (some centres undefined) | 0.081 | 375 | 3.6
3 | Nc1ncnc2c1ncn2C1O[C@H](/C=C(/F)Br)[C@@H](O)[C@H]1O (some centres undefined) | 0.04 | 170 | 3.9
